Target: Arachidonate 15-lipoxygenase (Oryctolagus cuniculus)
Assay: Inhibitory activity against reticulocyte 15-lipoxygenase in rabbit was evaluated.

**Q.** For COc1cc(CCc2ccc(NC(=O)c3ccc(C)cc3O)cc2)ccc1O [2-Hydroxy-N-{4-[2-(4-hydroxy-3-methoxy-phenyl)-ethyl]-phenyl}-4-methyl-benzamide], which IC50 is on record?
**A.** > 25 µM

**Q.** Which IC50 does the source give for O=C(Nc1ccc(CCc2ccc(O)c(O)c2)cc1)c1cccc(Cl)c1O [3-Chloro-N-{4-[2-(3,4-dihydroxy-phenyl)-ethyl]-phenyl}-2-hydroxy-benzamide] here?
**A.** 1.2 µM

**Q.** O=C(Nc1ccc(CCc2ccc(O)c(O)c2)cc1)c1ccc(-c2ccccc2)cc1O [3-Hydroxy-biphenyl-4-carboxylic acid {4-[2-(3,4-dihydroxy-phenyl)-ethyl]-phenyl}-amide] was tested. Which IC50 did it give?
**A.** > 25 µM

**Q.** With O=C(Nc1ccc(CCc2ccc(O)c(O)c2)cc1)c1cc(Br)ccc1O [5-Bromo-N-{4-[2-(3,4-dihydroxy-phenyl)-ethyl]-phenyl}-2-hydroxy-benzamide] as the molecule, how does the IC50 read?
**A.** 1.5 µM

**Q.** For O=C(Nc1ccc(CCc2ccc(O)c(O)c2)cc1)c1ccc(O)cc1O [N-{4-[2-(3,4-Dihydroxy-phenyl)-ethyl]-phenyl}-2,4-dihydroxy-benzamide], which IC50 is on record?
**A.** 5 µM

**Q.** Cc1ccc(C(=O)N(C)c2ccc(CCc3ccc(O)c(O)c3)cc2)c(O)c1 [N-{4-[2-(3,4-Dihydroxy-phenyl)-ethyl]-phenyl}-2-hydroxy-4,N-dimethyl-benzamide] was tested. Which IC50 did it give?
**A.** 5 µM

**Q.** Which IC50 does the source give for O=C(O)c1cccc(C(=O)Nc2ccc(CCc3ccc(O)c(O)c3)cc2)c1O [N-{4-[2-(3,4-Dihydroxy-phenyl)-ethyl]-phenyl}-2-hydroxy-isophthalamic acid] here?
**A.** > 25 µM

**Q.** For COc1ccc(CCc2ccc(NC(=O)c3ccccc3O)cc2)cc1OC [N-{4-[2-(3,4-Dimethoxy-phenyl)-ethyl]-phenyl}-2-hydroxy-benzamide], which IC50 is on record?
**A.** > 25 µM
